# In PubChem BioAssay AID256 (DTP/NCI, 2004):
# Values joined by “and” are separate entries in the source; they are usually repeats but may differ in a detail not shown here. Identical values can stand only once. Inconclusive results and toxic doses are left out. Non-standard residues stand in square brackets, D forms with d. Residues, ends and D or L forms follow the SMILES beside them. ξ: configuration not given here. ξF = NC(Cc1ccccc1)C(=O)O; Ac5c = NC1(C(=O)O)CCCC1
# Test system: CD2F1 mice, L1210 leukemia ip, survival T/C
# Assay: NCI In Vivo Anticancer Drug Screen. Data for tumor model L1210 Leukemia (intraperitoneal) in CD2F1 (CDF1) mice
# Conditions: higher = longer survival
# Outline: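 In this screen, transplantable tumors were grown in mice given either the compound or its vehicle. Results were expressed as the treated measurement relative to the control measurement.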
# [1] = endpoint: mean survival time, dose: 25.0 mg/kg/injection, schedule: Q04DX002 (ip), vehicle: saline
# [2] = endpoint: mean survival time, dose: 50.0 mg/kg/injection, schedule: Q04DX002 (ip), vehicle: saline
# [3] = endpoint: mean survival time, dose: 100.0 mg/kg/injection, schedule: Q01DX009 (ip), vehicle: saline with Tween-80
# [4] = endpoint: mean survival time, dose: 100.0 mg/kg/injection, schedule: Q04DX003 (ip), vehicle: saline with Tween-80
# [5] = endpoint: mean survival time, dose: 200.0 mg/kg/injection, schedule: Q01DX009 (ip), vehicle: saline with Tween-80
# [6] = endpoint: mean survival time, dose: 200.0 mg/kg/injection, schedule: Q04DX003 (ip), vehicle: saline with Tween-80
# [7] = endpoint: mean survival time, dose: 400.0 mg/kg/injection, schedule: Q01DX009 (ip), vehicle: saline with Tween-80
# [8] = endpoint: mean survival time, dose: 50.0 mg/kg/injection, schedule: Q01DX009 (ip), vehicle: saline
# [9] = endpoint: mean survival time, dose: 25.0 mg/kg/injection, schedule: Q01DX009 (ip), vehicle: saline
smiles,measurement,setting,value
CC[O+](CC)CC,T/C,"endpoint: mean survival time, dose: 12.5 mg/kg/injection, schedule: Q04DX002 (ip), vehicle: saline",95 % of control
same,T/C,[1],91 % of control
same,T/C,[2],95 % of control
Clc1ccccc1/C=C1/c2ccccc2-c2nc3ccccc3cc21,T/C,[3],97 % of control
same,T/C,[4],89 % of control
same,T/C,[5],105 % of control
same,T/C,[6],100 % of control
same,T/C,[7],102 % of control
same,T/C,"endpoint: mean survival time, dose: 400.0 mg/kg/injection, schedule: Q04DX003 (ip), vehicle: saline with Tween-80",95 % of control
COc1cc(C(=O)C=O)cc(OC)c1OC,T/C,"endpoint: mean survival time, dose: 50.0 mg/kg/injection, schedule: Q01DX009 (ip), vehicle: saline with Tween-80",103 % of control
same,T/C,[4],109 % of control
same,T/C,[6],110 % of control
O/N=C1/CCCC/C1=C/c1ccccc1,T/C,[3],103 % of control
same,T/C,[5],97 % of control
same,T/C,[7],97 % of control
NC(Cc1ccccc1)C(=O)NC1(C(=O)O)CCCC1 (centres undefined) (H-[ξF]-[Ac5c]-OH),T/C,[8],100 % of control
same,T/C,"endpoint: mean survival time, dose: 100.0 mg/kg/injection, schedule: Q01DX009 (ip), vehicle: saline",107 % of control
same,T/C,"endpoint: mean survival time, dose: 200.0 mg/kg/injection, schedule: Q01DX009 (ip), vehicle: saline",107 % of control
C[N+]12CC3C(O)CC1CCC32 (centres undefined),T/C,"endpoint: mean survival time, dose: 12.0 mg/kg/injection, schedule: Q01DX001 (ip), vehicle: saline",97 % of control
same,T/C,"endpoint: mean survival time, dose: 12.0 mg/kg/injection, schedule: Q01DX009 (ip), vehicle: saline",96 % of control
same,T/C,"endpoint: mean survival time, dose: 25.0 mg/kg/injection, schedule: Q01DX001 (ip), vehicle: saline",96 % of control
same,T/C,[9],98 % of control
same,T/C,"endpoint: mean survival time, dose: 50.0 mg/kg/injection, schedule: Q01DX001 (ip), vehicle: saline",97 % of control
same,T/C,[8],93 % of control
COc1ccc(OC)c(OC)c1CC(C)N (centres undefined),T/C,[1],108 % of control
same,T/C,[2],97 % of control
same,T/C,"endpoint: mean survival time, dose: 100.0 mg/kg/injection, schedule: Q04DX002 (ip), vehicle: saline",91 % of control and 97 % of control
O=C(O)c1c(F)c(F)c(F)c(C(=O)O)c1F,T/C,"endpoint: mean survival time, dose: 12.5 mg/kg/injection, schedule: Q01DX009 (ip), vehicle: saline",89 % of control
same,T/C,[9],95 % of control
same,T/C,"endpoint: mean survival time, dose: 25.0 mg/kg/injection, schedule: Q04DX003 (ip), vehicle: saline",89 % of control
same,T/C,[8],95 % of control
same,T/C,"endpoint: mean survival time, dose: 50.0 mg/kg/injection, schedule: Q04DX003 (ip), vehicle: saline",88 % of control
same,T/C,[4],93 % of control
N.N.N.N.O=C(O)C1OCCOCCOC(C(=O)O)C(C(=O)O)OCCOCCOC1C(=O)O.[Pt+2].[Pt+2] (centres undefined),T/C,"endpoint: median survival time, dose: 0.39 mg/kg/injection, schedule: Q04DX003 (ip), vehicle: saline with Tween-80",100 % of control
same,T/C,"endpoint: median survival time, dose: 0.62 mg/kg/injection, schedule: Q04DX003 (ip), vehicle: saline",98 % of control
same,T/C,"endpoint: median survival time, dose: 0.78 mg/kg/injection, schedule: Q04DX003 (ip), vehicle: saline with Tween-80",107 % of control
same,T/C,"endpoint: median survival time, dose: 0.78 mg/kg/injection, schedule: Q04DX003 (ip), vehicle: saline",100 % of control
same,T/C,"endpoint: median survival time, dose: 1.25 mg/kg/injection, schedule: Q04DX003 (ip), vehicle: saline",98 % of control
same,T/C,"endpoint: median survival time, dose: 1.56 mg/kg/injection, schedule: Q04DX003 (ip), vehicle: saline with Tween-80",107 % of control
same,T/C,"endpoint: median survival time, dose: 1.56 mg/kg/injection, schedule: Q04DX003 (ip), vehicle: saline",101 % of control
same,T/C,"endpoint: median survival time, dose: 2.5 mg/kg/injection, schedule: Q04DX003 (ip), vehicle: saline",98 % of control
same,T/C,"endpoint: median survival time, dose: 3.12 mg/kg/injection, schedule: Q04DX003 (ip), vehicle: saline with Tween-80",110 % of control
same,T/C,"endpoint: median survival time, dose: 3.12 mg/kg/injection, schedule: Q04DX003 (ip), vehicle: saline",107 % of control
same,T/C,"endpoint: median survival time, dose: 5.0 mg/kg/injection, schedule: Q04DX003 (ip), vehicle: saline",102 % of control
same,T/C,"endpoint: median survival time, dose: 6.25 mg/kg/injection, schedule: Q04DX003 (ip), vehicle: saline with Tween-80",118 % of control
same,T/C,"endpoint: median survival time, dose: 6.25 mg/kg/injection, schedule: Q04DX003 (ip), vehicle: saline",103 % of control
same,T/C,"endpoint: median survival time, dose: 10.0 mg/kg/injection, schedule: Q04DX003 (ip), vehicle: saline",111 % of control
same,T/C,"endpoint: median survival time, dose: 12.5 mg/kg/injection, schedule: Q04DX003 (ip), vehicle: saline",107 % of control
same,T/C,"endpoint: median survival time, dose: 20.0 mg/kg/injection, schedule: Q04DX003 (ip), vehicle: saline",111 % of control
same,T/C,"endpoint: median survival time, dose: 25.0 mg/kg/injection, schedule: Q04DX003 (ip), vehicle: saline with Tween-80",167 % of control
same,T/C,"endpoint: median survival time, dose: 25.0 mg/kg/injection, schedule: Q04DX003 (ip), vehicle: saline",123 % of control
O=C1O/C(=C\c2ccccc2)c2ccccc21,T/C,"endpoint: mean survival time, dose: 100.0 mg/kg/injection, schedule: Q04DX003 (ip), vehicle: saline",104 % of control
same,T/C,"endpoint: mean survival time, dose: 200.0 mg/kg/injection, schedule: Q04DX003 (ip), vehicle: saline",104 % of control
same,T/C,"endpoint: mean survival time, dose: 400.0 mg/kg/injection, schedule: Q04DX003 (ip), vehicle: saline",98 % of control
